28 compounds from patent publication US12448388B2, “PRMT5 inhibitors and uses thereof” (Gilead Sciences, Inc., priority 2023, dated 2025) can be followed below.

This assay relates to HCT116 MTAP-deleted cell lines. The assay is described as follows: Cell viability assay (CellTiter-Glo, 7 days), HCT116 MTAP-deleted. It counts as cell-based. The following applies: Homo sapiens, HCT-116; cell viability, HCT116 MTAP-deleted; class symbols; read-out: CC50. Summed up:
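Each PRMT5 inhibitor was tested as a dose response alongside tool compounds on the same plate. Incubation ran 7 days at 37 °C under 5% CO2, after which CellTiter-Glo luminescence was recorded and CC50 calculated.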

A word on the CC50: it is the concentration that lowers cell viability or growth by half. As for `Nc1nc2cc(F)c(C(=O)N(Cc3ccc(C(F)(F)F)cc3F)c3cnn(C(F)F)c3)cc2n2cncc12` [Ff-291, 4-amino-N-(1-(difluoromethyl)-1H-pyrazol-4-yl)-7-fluoro-N-(2-fluoro-4-(trifluoromethyl)benzyl)imidazo[1,5-a]quinoxaline-8-carboxamide], the CC50 is less than 100 nM.

As to `CN(C(=O)c1cc2c(cc1F)nc(N)c1cncn12)[C@@H]1COCc2cc(-c3cnn(C(F)F)c3)ccc21` [Ff-292, (S)-4-amino-7-fluoro-N-methyl-N-(7-(1-(difluoromethyl)-1H-pyrazol-4-yl)isochroman-4-yl)imidazo[1,5-a]quinoxaline-8-carboxamide], the CC50 is less than 100 nM.

In the case of `CN(C(=O)c1ccc2nc(N)c3cncn3c2c1)[C@@H]1COCc2nc(C(F)(F)F)ccc21` [Ff-302, (S)-4-amino-N-methyl-N-(2-(trifluoromethyl)-5,8-dihydro-6H-pyrano[3,4-b]pyridin-5-yl)imidazo[1,5-a]quinoxaline-8-carboxamide], the CC50 is less than 100 nM.

On to `Cc1ncn2c1c(N)nc1cc(F)c(C(=O)N(C)[C@@H]3COCc4nc(C(F)(F)F)ccc43)cc12` [Ff-303, (S)-4-amino-7-fluoro-N,3-dimethyl-N-(2-(trifluoromethyl)-5,8-dihydro-6H-pyrano[3,4-b]pyridin-5-yl)imidazo[1,5-a]quinoxaline-8-carboxamide], for which the CC50 was less than 100 nM.

Consider `Cc1ncn2c1c(N)nc1cc(F)c(C(=O)N(C)[C@@H]3COc4cc(C(F)(F)F)ccc43)cc12` [Ff-305, (S)-4-amino-7-fluoro-N,3-dimethyl-N-(6-(trifluoromethyl)-2,3-dihydrobenzofuran-3-yl)imidazo[1,5-a]quinoxaline-8-carboxamide], for which the CC50 is less than 100 nM.

In the case of `Cn1ccc(N(Cc2ccc(C(F)(F)F)cn2)C(=O)c2cc3c(cc2F)nc(N)c2cncn23)n1` [Ff-306, 4-amino-7-fluoro-N-(1-methyl-1H-pyrazol-3-yl)-N-((5-(trifluoromethyl)pyridin-2-yl)methyl)imidazo[1,5-a]quinoxaline-8-carboxamide], the CC50 is less than 100 nM.

Take `Cn1ccc(N(Cc2ncc(C(F)(F)F)cc2F)C(=O)c2cc3c(cc2F)nc(N)c2cncn23)n1` [Ff-307, 4-amino-7-fluoro-N-((3-fluoro-5-(trifluoromethyl)pyridin-2-yl)methyl)-N-(1-methyl-1H-pyrazol-3-yl)imidazo[1,5-a]quinoxaline-8-carboxamide]: the CC50 was less than 100 nM.

Take `CN(C(=O)c1cc2c(cc1Cl)nc(N)c1cncn12)[C@@H]1COCc2nc(C(F)(F)F)ccc21` [Ff-308, (S)-4-amino-7-chloro-N-methyl-N-(2-(trifluoromethyl)-5,8-dihydro-6H-pyrano[3,4-b]pyridin-5-yl)imidazo[1,5-a]quinoxaline-8-carboxamide]: the CC50 was less than 100 nM.

As for `CN(C(=O)c1cc2c(cc1F)nc(N)c1cncn12)C1CCc2cc(C(F)(F)F)ccc21` (stereo not shown) [Ff-309, 4-amino-7-fluoro-N-methyl-N-(5-(trifluoromethyl)-2,3-dihydro-1H-inden-1-yl)imidazo[1,5-a]quinoxaline-8-carboxamide], the CC50 is less than 100 nM.

Regarding `Nc1nc2cc(F)c(C(=O)N(Cc3ccc(C(F)(F)F)cn3)c3cnn(C(F)F)c3)cc2n2cncc12` [Ff-311, 4-amino-N-(1-(difluoromethyl)-1H-pyrazol-4-yl)-7-fluoro-N-((5-(trifluoromethyl)pyridin-2-yl)methyl)imidazo[1,5-a]quinoxaline-8-carboxamide], the CC50 is less than 100 nM.

In the case of `CN(C(=O)c1cc2c(cc1F)nc(N)c1cncn12)[C@@H]1c2ccc(Br)cc2[C@@H]2C[C@H]12` [Ff-312, 4-amino-N-((1aR,6S,6aS)-3-bromo-1,1a,6,6a-tetrahydrocyclopropa[a]inden-6-yl)-7-fluoro-N-methylimidazo[1,5-a]quinoxaline-8-carboxamide], the CC50 is 100 to 1000 nM.

As to `CN(C(=O)c1cc2c(cc1F)nc(N)c1cncn12)[C@H]1c2ccc(Br)cc2[C@H]2C[C@H]21` [Ff-313, 4-amino-N-((1aS,6R,6aR)-3-bromo-1,1a,6,6a-tetrahydrocyclopropa[a]inden-6-yl)-7-fluoro-N-methylimidazo[1,5-a]quinoxaline-8-carboxamide], the CC50 is 100 to 1000 nM.

With `Nc1nc2cc(F)c(C(=O)N(Cc3ccc(C(F)(F)F)cn3)c3cnn(-c4ccccc4)c3)cc2n2cncc12` [Ff-315, 4-amino-7-fluoro-N-(1-phenyl-1H-pyrazol-4-yl)-N-((5-(trifluoromethyl)pyridin-2-yl)methyl)imidazo[1,5-a]quinoxaline-8-carboxamide], the CC50 was less than 100 nM.

As for `Cc1ncn2c1c(N)nc1cc(F)c(C(=O)N(C)[C@@H]3CCc4nc(C(F)(F)F)ccc43)cc12` [Ff-316, (R)-4-amino-7-fluoro-N,3-dimethyl-N-(2-(trifluoromethyl)-6,7-dihydro-5H-cyclopenta[b]pyridin-5-yl)imidazo[1,5-a]quinoxaline-8-carboxamide], the CC50 is less than 100 nM.

Regarding `Cc1ncc2c(N)nc3cc(F)c(C(=O)N(C)[C@@H]4CCc5nc(C(F)(F)F)ccc54)cc3n12` [Ff-317, (R)-4-amino-7-fluoro-N,1-dimethyl-N-(2-(trifluoromethyl)-6,7-dihydro-5H-cyclopenta[b]pyridin-5-yl)imidazo[1,5-a]quinoxaline-8-carboxamide], the CC50 was in the range of 100 to 1000 nM.

`CN(C(=O)c1cc2c(cc1F)nc(N)c1cncn12)[C@@H]1CCc2nc(C(F)(F)F)ccc21` [Ff-318, (R)-4-amino-7-fluoro-N-methyl-N-(2-(trifluoromethyl)-6,7-dihydro-5H-cyclopenta[b]pyridin-5-yl)imidazo[1,5-a]quinoxaline-8-carboxamide]: the CC50 is less than 100 nM.

For `Nc1nc2cc(F)c(C(=O)N3CCO[C@@H]4Cc5cc(C(F)(F)F)c(F)cc5[C@@H]43)cc2n2cncc12` [Ff-326, (4-amino-7-fluoroimidazo[1,5-a]quinoxalin-8-yl)((4aS,9aR)-6-fluoro-7-(trifluoromethyl)-2,3,9,9a-tetrahydroindeno[2,1-b][1,4]oxazin-4(4aH)-yl)methanone], the half-maximal cytotoxic concentration (CC50) is less than 100 nM.

On to `CC1CN(C(=O)c2cc3c(cc2F)nc(N)c2cncn23)[C@H]2c3cc(F)ccc3C[C@H]2O1` (stereo partly drawn) [Ff-327, (4-amino-7-fluoroimidazo[1,5-a]quinoxalin-8-yl)((4aS,9aR)-6-fluoro-2-methyl-2,3,9,9a-tetrahydroindeno[2,1-b][1,4]oxazin-4(4aH)-yl)methanone], for which the CC50 is less than 100 nM.

On to `CN(C(=O)c1cc2c(cc1F)nc(N)c1cncn12)[C@H]1c2ccc(Br)cc2[C@@H]2C[C@@H]21` [Ff-330, 4-amino-N-((1aR,6R,6aS)-3-bromo-1,1a,6,6a-tetrahydrocyclopropa[a]inden-6-yl)-7-fluoro-N-methylimidazo[1,5-a]quinoxaline-8-carboxamide], for which the CC50 fell in the range of 100 to 1000 nM.

Turning to `Nc1nc2cnc(C(=O)N3CCC[C@@H]4Oc5c(ccc(OC(F)(F)F)c5F)[C@@H]43)cc2n2cncc12` [Ff-336, (4-aminoimidazo[1,5-a]pyrido[3,4-e]pyrazin-8-yl)((4aS,9bS)-6-fluoro-7-(trifluoromethoxy)-3,4,4a,9b-tetrahydrobenzofuro[3,2-b]pyridin-1(2H)-yl)methanone], the CC50 is less than 100 nM.

In the case of `CN(C(=O)c1cc2c(cc1F)nc(N)c1cncn12)[C@@H]1COc2cc(C(C)(F)F)ccc21` [Ff-337, (S)-4-amino-N-(6-(1,1-difluoroethyl)-2,3-dihydrobenzofuran-3-yl)-7-fluoro-N-methylimidazo[1,5-a]quinoxaline-8-carboxamide], the CC50 is less than 100 nM.

`CN(C(=O)c1cc2c(cn1)nc(N)c1cncn12)[C@@H]1COc2cc(C(F)(F)F)ccc21` [Ff-342, (S)-4-amino-N-methyl-N-(6-(trifluoromethyl)-2,3-dihydrobenzofuran-3-yl)imidazo[1,5-a]pyrido[3,4-e]pyrazine-8-carboxamide]: the CC50 was less than 100 nM.

As for `Nc1nc2cc(F)c(C(=O)N3CCC[C@@H]4Oc5c(ccc(OC(F)(F)F)c5F)[C@@H]43)cc2n2cncc12` [Ff-343, (4-amino-7-fluoroimidazo[1,5-a]quinoxalin-8-yl)((4aS,9bS)-6-fluoro-7-(trifluoromethoxy)-3,4,4a,9b-tetrahydrobenzofuro[3,2-b]pyridin-1(2H)-yl)methanone], the CC50 was less than 100 nM.

Consider `Cc1ncc2c(N)nc3cnc(C(=O)N4CCC[C@@H]5Oc6c(ccc(OC(F)(F)F)c6F)[C@@H]54)cc3n12` [Ff-347, (4-amino-1-methylimidazo[1,5-a]pyrido[3,4-e]pyrazin-8-yl)((4aS,9bS)-6-fluoro-7-(trifluoromethoxy)-3,4,4a,9b-tetrahydrobenzofuro[3,2-b]pyridin-1(2H)-yl)methanone], for which the CC50 was less than 100 nM.

Take `C[C@@H]1C[C@@H]2Oc3c(ccc(C(F)(F)F)c3F)[C@@H]2N(C(=O)c2cc3c(cn2)nc(N)c2cncn23)C1` [Ff-348, (4-aminoimidazo[1,5-a]pyrido[3,4-e]pyrazin-8-yl)((3R,4aS,9bS)-6-fluoro-3-methyl-7-(trifluoromethyl)-3,4,4a,9b-tetrahydrobenzofuro[3,2-b]pyridin-1(2H)-yl)methanone]: the CC50 was less than 100 nM.

In the case of `N#Cc1cc2nc(N)c3cncn3c2cc1C(=O)N1CCC[C@@H]2Oc3cc(OC(F)(F)F)ccc3[C@@H]21` [Ff-349, 4-amino-8-((4aS,9bS)-7-(trifluoromethoxy)-1,2,3,4,4a,9b-hexahydrobenzofuro[3,2-b]pyridine-1-carbonyl)imidazo[1,5-a]quinoxaline-7-carbonitrile], the CC50 is less than 100 nM.

Take `Cc1ncc2c(N)nc3ccc(C(=O)N(C)[C@@H]4COc5cc(C(F)(F)F)c(F)cc54)cc3n12` [Ff-352, (S)-4-amino-N-(5-fluoro-6-(trifluoromethyl)-2,3-dihydrobenzofuran-3-yl)-N,1-dimethylimidazo[1,5-a]quinoxaline-8-carboxamide]: the CC50 is less than 100 nM.

Take `CN(C(=O)c1ccc2nc(N)c3cncn3c2c1)[C@@H]1COc2cc(C(F)(F)F)c(F)cc21` [Ff-353, (S)-4-amino-N-(5-fluoro-6-(trifluoromethyl)-2,3-dihydrobenzofuran-3-yl)-N-methylimidazo[1,5-a]quinoxaline-8-carboxamide]: the CC50 was less than 100 nM.
